Measured values: PubChem BioAssay AID248 (DTP/NCI, 2004)
Values joined by “and” are separate entries in the source; they are usually repeats but may differ in a detail not shown here. Equal entries are not always repeated. Inconclusive results and toxic doses are left out. No stated cut-off is given here; in the data, active means T/C of 150% or more; inactive means T/C below 125%.

Tested on: L1210 leukemia ip in BDF1 mice, survival T/C
Assay: NCI In Vivo Anticancer Drug Screen. Data for tumor model L1210 Leukemia (intraperitoneal) in B6D2F1 (BDF1) mice
Details: endpoint: mean survival time, higher = longer survival
Summary of the method: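 Tumor cells were implanted, animals were treated, and survival was followed. The result divides the treated measurement by the vehicle-control measurement.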

[1] = dose: 25.0 mg/kg/injection, schedule: Q04DX003 (ip), vehicle: saline with Tween-80
[2] = dose: 100.0 mg/kg/injection, schedule: Q04DX003 (ip), vehicle: saline with Tween-80
[3] = dose: 200.0 mg/kg/injection, schedule: Q04DX003 (ip), vehicle: saline with Tween-80
[4] = dose: 100.0 mg/kg/injection, schedule: Q01DX001 (ip), vehicle: saline
[5] = dose: 200.0 mg/kg/injection, schedule: Q01DX001 (ip), vehicle: saline
[6] = dose: 400.0 mg/kg/injection, schedule: Q01DX001 (ip), vehicle: saline
[7] = dose: 100.0 mg/kg/injection, schedule: Q04DX003 (ip), vehicle: Klucel (hydroxypropylcellulose) (HPC)
[8] = dose: 200.0 mg/kg/injection, schedule: Q04DX003 (ip), vehicle: Klucel (hydroxypropylcellulose) (HPC)
[9] = dose: 100.0 mg/kg/injection, schedule: Q01DX009 (ip), vehicle: saline with Tween-80
[10] = dose: 200.0 mg/kg/injection, schedule: Q01DX009 (ip), vehicle: saline with Tween-80
[11] = dose: 400.0 mg/kg/injection, schedule: Q01DX009 (ip), vehicle: saline with Tween-80
[12] = dose: 100.0 mg/kg/injection, schedule: Q04DX002 (ip), vehicle: saline with Tween-80
[13] = dose: 200.0 mg/kg/injection, schedule: Q04DX002 (ip), vehicle: saline with Tween-80
[14] = dose: 400.0 mg/kg/injection, schedule: Q04DX002 (ip), vehicle: saline with Tween-80
[15] = dose: 100.0 mg/kg/injection, schedule: Q04DX002 (ip), vehicle: saline
[16] = dose: 200.0 mg/kg/injection, schedule: Q04DX002 (ip), vehicle: saline
[17] = dose: 400.0 mg/kg/injection, schedule: Q04DX002 (ip), vehicle: saline

Measured: T/C

CC1(C)CN(Cc2ccccc2)C(C)(C)CN1
inactive: dose: 0.19 mg/kg/injection, schedule: Q01DX009 (ip), vehicle: saline with Tween-80 93 % of control | dose: 0.39 mg/kg/injection, schedule: Q01DX009 (ip), vehicle: saline with Tween-80 100 % of control | dose: 0.78 mg/kg/injection, schedule: Q01DX009 (ip), vehicle: saline with Tween-80 106 % of control | dose: 1.56 mg/kg/injection, schedule: Q01DX009 (ip), vehicle: saline with Tween-80 101 % of control | dose: 12.5 mg/kg/injection, schedule: Q04DX003 (ip), vehicle: saline with Tween-80 92 % of control | [1] 103 % of control

CCC1CCC2C(CCC3(N(C)C)CCC(OC)C(OC)C23)C1 (stereo not drawn)
inactive: dose: 3.13 mg/kg/injection, schedule: Q01DX001 (ip), vehicle: saline with Tween-80 98 % of control | dose: 6.25 mg/kg/injection, schedule: Q01DX001 (ip), vehicle: saline with Tween-80 96 % of control | dose: 12.5 mg/kg/injection, schedule: Q01DX001 (ip), vehicle: saline with Tween-80 100 % of control

O=[N+]([O-])c1ccc(N/N=C(\Oc2ccccc2)c2ccc([N+](=O)[O-])cc2)cc1
inactive: [2] 94 % of control | [3] 90 % of control

CCn1c(C)nc2cc(Cl)c([N+](=O)[O-])cc21
inactive: [4] 91 % of control | dose: 100.0 mg/kg/injection, schedule: Q04DX003 (ip), vehicle: acetone 93 % of control | [5] 110 % of control | dose: 200.0 mg/kg/injection, schedule: Q04DX003 (ip), vehicle: acetone 93 % of control | [6] 96 % of control | dose: 400.0 mg/kg/injection, schedule: Q04DX003 (ip), vehicle: acetone 96 % of control

C=CCCC1(CC=C)C(=O)NC(=O)NC1=O
inactive: dose: 75.0 mg/kg/injection, schedule: Q01DX001 (ip), vehicle: saline 100 % of control | dose: 150.0 mg/kg/injection, schedule: Q01DX001 (ip), vehicle: saline 104 % of control

Clc1c(Cl)c(CBr)c(Cl)c(CBr)c1Cl
inactive: dose: 50.0 mg/kg/injection, schedule: Q01DX009 (ip), vehicle: Klucel (hydroxypropylcellulose) (HPC) 104 % of control | [7] 103 % of control | [8] 109 % of control

CCCCNC(c1ccccc1)=[N+]1C(C)CCCC1C (stereo not drawn)
inactive: dose: 3.0 mg/kg/injection, schedule: Q04DX002 (ip), vehicle: saline 108 % of control | dose: 6.0 mg/kg/injection, schedule: Q04DX002 (ip), vehicle: saline 94 % of control | dose: 12.0 mg/kg/injection, schedule: Q04DX002 (ip), vehicle: saline 87 % of control | dose: 12.5 mg/kg/injection, schedule: Q04DX002 (ip), vehicle: saline 107 % of control

CCOC(=O)c1cnc(SCCN2C(=O)c3ccccc3C2=O)[nH]c1=O
inactive: dose: 100.0 mg/kg/injection, schedule: Q04DX003 (ip), vehicle: gum acacia 100 % of control | dose: 200.0 mg/kg/injection, schedule: Q04DX003 (ip), vehicle: gum acacia 102 % of control | dose: 400.0 mg/kg/injection, schedule: Q04DX003 (ip), vehicle: gum acacia 97 % of control

OC1(C2(O)CCC2)CCC1
inactive: dose: 50.0 mg/kg/injection, schedule: Q01DX001 (ip), vehicle: carboxymethylcellulose (CMC) 98 % of control | dose: 100.0 mg/kg/injection, schedule: Q01DX001 (ip), vehicle: carboxymethylcellulose (CMC) 95 % of control | dose: 200.0 mg/kg/injection, schedule: Q01DX001 (ip), vehicle: carboxymethylcellulose (CMC) 95 % of control | dose: 400.0 mg/kg/injection, schedule: Q01DX001 (ip), vehicle: carboxymethylcellulose (CMC) 101 % of control

CCN(CC)C(=O)Cn1cc(F)c(=O)[nH]c1=O
inactive: [2] 98 % of control | dose: 100.0 mg/kg/injection, schedule: Q04DX003 (ip), vehicle: saline 104 % of control | [3] 101 % of control | dose: 200.0 mg/kg/injection, schedule: Q04DX003 (ip), vehicle: saline 104 % of control | dose: 400.0 mg/kg/injection, schedule: Q04DX003 (ip), vehicle: saline with Tween-80 106 % of control | dose: 400.0 mg/kg/injection, schedule: Q04DX003 (ip), vehicle: saline 98 % of control

Cc1cc(C)c(Br)c(C)c1C
inactive: [4] 104 % of control | [5] 113 % of control | [6] 116 % of control

CCCCNC(C)(C)C(SSS(=O)(=O)O)c1ccc(Cl)cc1 (stereo not drawn)
inactive: [9] 96 % of control | [10] 103 % of control | [11] 92 % of control

C[N+]12C(=O)CC3OCC=C4C[N+]5(C)CCC6(c7ccccc71)C2C3C4CC65O (stereo not drawn)
inactive: dose: 9.5 mg/kg/injection, schedule: Q01DX001 (ip), vehicle: other 92 % of control | dose: 19.0 mg/kg/injection, schedule: Q01DX001 (ip), vehicle: other 101 % of control

CCP(=O)(CC(=O)O)c1ccccc1 (stereo not drawn)
inactive: [12] 109 % of control | [13] 103 % of control | [14] 103 % of control

CCCCCCC(=O)N(CC)CC
inactive: [15] 94 % of control | [16] 98 % of control | [17] 91 % of control

Cc1cc(C)c(NC(=S)NC(=O)c2ccco2)c(C)c1
inactive: [9] 97 % of control | [7] 98 % of control | [10] 93 % of control | [8] 96 % of control | [11] 95 % of control | dose: 400.0 mg/kg/injection, schedule: Q04DX003 (ip), vehicle: Klucel (hydroxypropylcellulose) (HPC) 102 % of control

Nc1ncnc(N)c1NC(=O)c1ccc(OCCOc2ccccc2)c(Cl)c1
inactive: [1] 89 % of control | dose: 50.0 mg/kg/injection, schedule: Q04DX003 (ip), vehicle: saline with Tween-80 93 % of control | [2] 98 % of control

Cc1c(-c2ccccc2)sc(/N=C/c2ccc(Cl)c(Cl)c2)c1C#N
inactive: [9] 103 % of control and 104 % of control | [12] 96 % of control and 101 % of control | [10] 103 % of control and 108 % of control | [13] 97 % of control and 104 % of control | [11] 93 % of control and 97 % of control | [14] 104 % of control and 115 % of control

NCC(=O)NCCCCCCCCCCNC(=O)CN
inactive: dose: 10.0 mg/kg/injection, schedule: Q01DX Z (ip), vehicle: saline 98 % of control | dose: 30.0 mg/kg/injection, schedule: Q01DX Z (ip), vehicle: saline 95 % of control | dose: 100.0 mg/kg/injection, schedule: Q01DX Z (ip), vehicle: saline 98 % of control

CC1CCCN(C(=O)Nc2ccccc2)C1 (stereo not drawn)
inactive: [15] 104 % of control | [16] 115 % of control | [17] 96 % of control

CN1CCN(Cc2c(O)ccc3c2OC(C)(C)C2=C3CCCC2)CC1
inactive: [4] 89 % of control | [5] 98 % of control

CC(C)CCCC(C)CCCC(C)CCCCC(C)CCCC(C)CCCC(C)C (stereo not drawn)
inactive: dose: 100.0 mg/kg/injection, schedule: Q04DX002 (ip), vehicle: Klucel (hydroxypropylcellulose) (HPC) 103 % of control | dose: 200.0 mg/kg/injection, schedule: Q04DX002 (ip), vehicle: Klucel (hydroxypropylcellulose) (HPC) 106 % of control | dose: 400.0 mg/kg/injection, schedule: Q04DX002 (ip), vehicle: Klucel (hydroxypropylcellulose) (HPC) 109 % of control

COc1ccc(OC)c2c(C)c(C)[nH]c12
inactive: dose: 50.0 mg/kg/injection, schedule: Q01DX001 (ip), vehicle: saline 98 % of control | [4] 93 % of control | [5] 109 % of control | [6] 106 % of control
